Experiments:
[1] = 101 kPa, Liquid
[2] = refractive index (Na D-line) (dimensionless); conditions: 298.15 K; 101.33 kPa; Liquid; Standard Abbe refractometry
[3] = xn = mol fraction of the nth substance listed; conditions: 101 kPa, Liquid

Cc1cc(C)cc(C)c1 [1,3,5-trimethylbenzene]
[1]
Conditions	mass density [kg/m3]
298.15 K	861.13
308.15 K	852.89
318.15 K	844.78
328.15 K	836.65

Conditions	refractive index
[2]	1.4967

Cc1cc(C)cc(C)c1 [1,3,5-trimethylbenzene] + CCCCCCCC
[3]
Conditions	mass density [kg/m3]
298.15 K, x2 = 0	861.13
298.15 K, x2 = 0.08503	845.14
298.15 K, x2 = 0.1479	833.6
298.15 K, x2 = 0.2132	821.88
298.15 K, x2 = 0.2717	811.56
298.15 K, x2 = 0.3177	803.61
298.15 K, x2 = 0.3864	791.95
298.15 K, x2 = 0.463	779.23
298.15 K, x2 = 0.5407	766.69
298.15 K, x2 = 0.6037	756.73
298.15 K, x2 = 0.6725	746.08
298.15 K, x2 = 0.723	738.44
298.15 K, x2 = 0.7969	727.45
298.15 K, x2 = 0.8623	717.95
298.15 K, x2 = 0.9422	706.63
308.15 K, x2 = 0	852.89
308.15 K, x2 = 0.08503	836.88
308.15 K, x2 = 0.1386	827.02
308.15 K, x2 = 0.2132	813.6
308.15 K, x2 = 0.2717	803.29
308.15 K, x2 = 0.3177	795.34
308.15 K, x2 = 0.3864	783.69
308.15 K, x2 = 0.463	770.99
308.15 K, x2 = 0.5407	758.45
308.15 K, x2 = 0.6037	748.49
308.15 K, x2 = 0.6725	737.87
308.15 K, x2 = 0.723	730.2
308.15 K, x2 = 0.7969	719.24
308.15 K, x2 = 0.8623	709.74
308.15 K, x2 = 0.9422	698.43
318.15 K, x2 = 0	844.78
318.15 K, x2 = 0.06984	831.58
318.15 K, x2 = 0.1363	819.34
318.15 K, x2 = 0.2001	807.84
318.15 K, x2 = 0.2695	795.59
318.15 K, x2 = 0.3464	782.35
318.15 K, x2 = 0.398	773.67
318.15 K, x2 = 0.4464	765.65
318.15 K, x2 = 0.536	751.14
318.15 K, x2 = 0.5995	741.12
318.15 K, x2 = 0.6643	731.1
318.15 K, x2 = 0.7301	721.16
318.15 K, x2 = 0.7839	713.18
318.15 K, x2 = 0.8537	703.03
318.15 K, x2 = 0.9507	689.3
328.15 K, x2 = 0	836.65
328.15 K, x2 = 0.06984	823.48
328.15 K, x2 = 0.1363	811.25
328.15 K, x2 = 0.2001	799.75
328.15 K, x2 = 0.2677	787.84
328.15 K, x2 = 0.3464	774.3
328.15 K, x2 = 0.398	765.62
328.15 K, x2 = 0.4622	755.02
328.15 K, x2 = 0.5368	743
328.15 K, x2 = 0.6022	732.7
328.15 K, x2 = 0.6552	724.51
328.15 K, x2 = 0.7389	711.86
328.15 K, x2 = 0.7839	705.21
328.15 K, x2 = 0.8537	695.07
328.15 K, x2 = 0.9507	681.35

Cc1cccc(C)c1 [1,3-dimethylbenzene]
[1]
Conditions	mass density [kg/m3]
298.15 K	859.85
308.15 K	851.2
318.15 K	842.66
328.15 K	834.13

Conditions	refractive index
[2]	1.4945

From the NIST ThermoML archive (doi:10.1016/j.jct.2007.10.010)
